Bounds are passed on as bounds.

What is called IC50 is the point on the concentration scale where inhibition reaches its midpoint.

The target in test [1] is T1, Isocitrate dehydrogenase [NADP], mitochondrial (Homo sapiens, UniProt P48735).
T1 sequence (P48735 whole entry): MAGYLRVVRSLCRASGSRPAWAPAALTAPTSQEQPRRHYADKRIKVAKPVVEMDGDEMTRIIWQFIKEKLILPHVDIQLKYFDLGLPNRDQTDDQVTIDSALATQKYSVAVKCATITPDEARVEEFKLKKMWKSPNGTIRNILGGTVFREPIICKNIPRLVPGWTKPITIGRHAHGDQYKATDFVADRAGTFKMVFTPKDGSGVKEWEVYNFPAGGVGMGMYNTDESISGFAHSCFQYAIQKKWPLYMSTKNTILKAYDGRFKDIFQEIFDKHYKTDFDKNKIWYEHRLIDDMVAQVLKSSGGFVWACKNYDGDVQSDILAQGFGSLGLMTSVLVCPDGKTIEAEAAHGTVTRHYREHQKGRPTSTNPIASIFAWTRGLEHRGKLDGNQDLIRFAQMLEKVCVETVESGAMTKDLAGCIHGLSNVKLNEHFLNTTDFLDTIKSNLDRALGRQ
As to the kind of experiment: Inhibition of N-terminal His-tagged human recombinant IDH2 R140Q mutant (41 to 452) expressed in baculovirus system incubated for 60 mins by size-exclusion chromatography analysis. Background: Size exclusion chromatography separates by hydrodynamic size, large species first.

For test [2], the target named is Isocitrate dehydrogenase [NADP] cytoplasmic (Homo sapiens, UniProt O75874). As to the kind of experiment: Inhibition of N-terminal His-tagged human recombinant IDH1 R132H mutant (1 to 414) expressed in Sf9 incubated for 60 mins by size-exclusion chromatography analysis.
Isocitrate dehydrogenase [NADP] cytoplasmic, sequence (O75874 2-414 R132H limits assumed): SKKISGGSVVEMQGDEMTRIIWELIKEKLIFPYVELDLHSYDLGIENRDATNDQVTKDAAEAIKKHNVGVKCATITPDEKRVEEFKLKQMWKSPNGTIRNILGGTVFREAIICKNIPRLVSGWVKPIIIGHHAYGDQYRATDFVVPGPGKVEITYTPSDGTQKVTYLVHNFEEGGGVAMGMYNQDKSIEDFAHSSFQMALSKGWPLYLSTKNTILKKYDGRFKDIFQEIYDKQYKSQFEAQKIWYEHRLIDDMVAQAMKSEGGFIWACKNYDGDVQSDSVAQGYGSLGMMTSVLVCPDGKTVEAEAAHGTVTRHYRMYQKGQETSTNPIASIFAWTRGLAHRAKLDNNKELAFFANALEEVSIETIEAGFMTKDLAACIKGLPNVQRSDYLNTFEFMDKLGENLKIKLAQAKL

For `FC1(F)CCC(Nc2nc(NC3Cc4ccccc4C3)nc(-c3cccc(C(F)(F)F)n3)n2)C1` (stereo not drawn) [US10028961, Compound 152], the IC50 in test [1] and in test [2] was < 50 nM in each case.

On to `C[C@@H](Nc1nc(Nc2ccnc(C3(C#N)CC3)c2)nc(-c2cccc(C(F)(F)F)n2)n1)C(F)(F)F` [US10028961, Compound 352], for which the IC50 in test [1] was < 50 nM.

For the origin of these results see BindingDB's records for PubMed 37235998 (Nanjing University of Chinese Medicine).
